Results taken from patent US20130023589A1, “MEDICATION FOR THERAPY OR PROPHYLAXIS OF ASTHMA” (priority 2011, published 2013).

Legend:
[1] = system: primary human bronchial smooth cells (BSMC); experiment: QCM Chemotaxis cell migration assay of BSMCs cocultured with DBP-treated BEAS-2B cells; assay type: cell-based; settings: 5 μM ginger compound, then coculture with DBP-BEAS for 24 hours; groups A1-7 to A1-10, FIG. 6
Experimental: (§1) With reference to FIG. 5, the plasticizers-treated bronchial smooth muscle cells are prepared by processing two steps. In the first step, a plasticizer-treated bronchial epithelial cell line is obtained by harvesting a human bronchial epithelial cell line in a chemical plasticizer at 37±1° C. for 6 hours, with each 100 mm incubating plate receiving 2×10^6 cells and with the treatment of the chemical plasticizer to induce the excretion of proinflammatory cytokines in the human bronchial epithelial cell line, such as IL-8 and RANTES, followed by removing the chemical plasticizer from the human bronchial epithelial cell line, reincubating the human bronchial epithelial cell lines in a culturing medium for 24 hours, and finally collecting the supernatants to obtain plasticizers-treated bronchial epithelial cells of the present invention. In specification, the chemical plasticizer of the present invention can be selected from a group of butylbenzyl phthalate (BBP), bis-(2-ethylhexyl) phthalate (BEHP), dibutyl phthalate (DBP) and diethyl phthalate (DEP), and with the concentration of 0.1 to 5.0 μM.
(§2) In the second step, the plasticizer-treated bronchial epithelial cells obtained from the first step are coincubated with a human bronchial smooth muscle cell line to obtain the plasticizer-treated bronchial smooth muscle cells of the present invention. […]
With reference of TABLE 1, the BSMCs are previously seeded into a migration chamber for 24 hours, with the BSMCs placing on the surface of the migration chamber, and randomly assigned into 10 groups including A1-1 to A1-10 to carry out various treatments between 10 groups. […] After the treatments, the BSMCs of the groups A1-1 to A1-10 are analyzed by a QCM Chemotaxis […] cell migration assay system (Chemicon, Temecula, Calif.; Millipore Corp, Bedford, Mass.), with the BSMCs in each group being stained, lysed and finally quantified on a microplate at 560 nm. […]

[2] = system: primary human bronchial smooth cells (BSMC); experiment: WST-1 cell proliferation assay of BSMCs cocultured with DBP-treated BEAS-2B cells; assay type: cell-based; settings: 5 μM ginger compound for 1 hour, then coculture with DBP-BEAS for 72 hours; groups A2-7 to A2-10, FIG. 7
Experimental: as §1, §2
Additionally, with reference to TABLE 2, the BSMCs are placed and preincubated in 96-well culture plates for 24 hours, followed by randomly assigning into 10 groups including A2-1 to A2-10 to carry out various treatments between 10 groups. […] After the various treatments of each group, the proliferation degrees of BSMCs in each group are determined by Premixed WST-1 Cell Proliferation Reagent (Clontech Laboratories Inc., Mountain View, Calif.).

Compound	plasticizer-induced airway remodeling: migration of BSMCs [1]	plasticizer-induced airway remodeling: proliferation of BSMCs [2]
CCCCCCCCC[C@H](O)CC(=O)CCc1ccc(O)c(OC)c1 [[10]-gingerol]	sufficient in suppressing	sufficient in suppressing
CCCCC/C=C/C(=O)CCc1ccc(O)c(OC)c1 [[6]-shogaol]	sufficient in suppressing	sufficient in suppressing
CCCCC[C@H](O)CC(=O)CCc1ccc(O)c(OC)c1 [[6]-gingerol]	sufficient in suppressing	sufficient in suppressing
